Measurements taken from US20060128723A1, “Sulptionamide compounds that modulate chemokine receptor activity (CCR4)” (priority 2003, published 2006).
Where a name gives a salt, the structure may show the parent alone.

SMILES | melting point
COc1nc(C)cnc1NS(=O)(=O)c1sc(Cl)c(Cl)c1Cl [Example 3, 3,4,5-Trichloro-N-(3-methoxy-5-methylpyrazin-2-yl)thiophene-2-sulphonamide] | 146 to 147 °C
COc1nccnc1NS(=O)(=O)c1scc(Cl)c1Cl [Example 2, 3,4-Dichloro-N-(3-methoxypyrazin-2-yl)thiophene-2-sulphonamide] | 151.5 to 152.5 °C
COc1nccnc1NS(=O)(=O)c1sc(Cl)c(Cl)c1Cl [Example 1, 3,4,5-Trichloro-N-(3-methoxypyrazin-2-yl)thiophene-2-sulphonamide] | 212 to 214 °C
COc1nc(C)cnc1NS(=O)(=O)c1scc(Cl)c1Cl [Example 4, 3,4-Dichloro-N-(3-methoxy-5-methylpyrazin-2-yl)thiophene-2-sulphonamide] | 117 to 118 °C

More lines, now with the values ahead:

melting point | SMILES
204 °C (dec.) | COc1nc(Br)cnc1NS(=O)(=O)c1scc(Cl)c1Cl (as salt: ammonium) [Example 5, N-(5-Bromo-3-methoxypyrazin-2-yl)-3,4-dichlorothiophene-2-sulphonamide, ammonium salt]
211 °C (dec.) | COc1nc(Br)cnc1NS(=O)(=O)c1sc(Cl)c(Cl)c1Cl (as salt: ammonium) [Example 6, N-(5-Bromo-3-methoxypyrazin-2-yl)-3,4,5-trichlorothiophene-2-sulphonamide, ammonium salt]
116 to 117 °C | COc1nc(Cl)cnc1NS(=O)(=O)c1scc(Cl)c1Cl [Example 8, 3,4-Dichloro-N-(5-chloro-3-methoxypyrazin-2-yl)thiophene-2-sulphonamide.]
178 to 179 °C | COc1nc(Cl)cnc1NS(=O)(=O)c1sc(Cl)c(Cl)c1Cl [Example 7, 3,4,5-Trichloro-N-(5-chloro-3-methoxypyrazin-2-yl)thiophene-2-sulphonamide.]
